Consider five compounds from patent publication EP0230274A2, “Derivatives of 7-(azabicycloalkyl)-quinoloncarboxylic acid and -naphthyridoncarboxylic acid” (BAYER AG, priority 1986, dated 1987).

≈ marks a conversion by molar mass, not a printed value. Counter-ions that a name gives are not always drawn. Like-named read-outs stand apart in the source and are kept apart here.

What all share (assay): Agar dilution test (Isosensitest agar), MIC
What all share (format): cell-based
(In agar dilution, organisms are placed on agar that contains the substance at set levels.)

Assay [1] concerns Pseudomonas aerug. W. As to conditions: strain Pseudomonas aerug. W.; Agardilutionstest/Isosensitestagar; read-out: MHK.
The subject of assay [2] is Streptoc. faecal. 9790. Conditions: strain Streptoc. faecal. 9790; Agardilutionstest/Isosensitestagar; read-out: MHK. From the text:
(§1) In der nachstehenden Tabelle sind einige MHK-Werte im Vergleich zu 1-Cyclopropyl-6-fluor-1,4-dihydro-4-oxo-7-(1-piperazinyl)-3-chinolincarbonsäure (Ciprofloxacin) angegeben: […]

Assay [3] deals with Streptoc. faecal. 27101. Conditions: strain Streptoc. faecal. 27101; Agardilutionstest/Isosensitestagar; read-out: MHK.
Source text: as §1

Assay [4] has as its system Staph. aur. 1756. As to conditions: strain Staph. aur. 1756; Agardilutionstest/Isosensitestagar; read-out: MHK.
Source text: as §1

The subject of assay [5] is Staph. aur. FK 422. As to conditions: strain Staph. aur. FK 422; Agardilutionstest/Isosensitestagar; read-out: MHK.
Source text: as §1

Assay [6] concerns E.coli 455/7. As to conditions: Escherichia coli; strain E.coli 455/7; Agardilutionstest/Isosensitestagar; read-out: MHK.
Assay [7] relates to Providenicia 12052. Conditions: read-out: MHK.
Source text: as §1

The test system of assay [8] is Staph. aur. 133. As to conditions: strain Staph. aur. 133; Agardilutionstest/Isosensitestagar; read-out: MHK.
Source text: as §1

[9] abbreviates: strain Providenicia 12052, Agardilutionstest/Isosensitestagar.

As for `O=C(O)c1cn(C2CC2)c2cc(N3CCN4CCC3C4)c(F)cc2c1=O` (stereo not drawn) [Beispiel 1, 1-Cyclopropyl-7-(1,4-diazabicyclo[3.2.1]oct-4-yl)-6-fluor-1,4-dihydro-4-oxo-3-chinolincarbonsäureHydrochlorid], the MIC in assay [1] amounted to 0.5 µg/mL; in assay [2] it was 0.25 µg/mL; in assay [3], 0.25 µg/mL; in assay [4], 0.25 µg/mL; in assay [5] it was 0.25 µg/mL; in assay [6], 2 µg/mL.

As to `O=C(O)c1cn(C2CC2)c2c(Cl)c(N3CCN4CCC3C4)c(F)cc2c1=O` (stereo not drawn) [Beispiel 3, 8-Chlor-1-cyclopropyl-7-(1,4-diazabicyclo[3.2.1]ocl-4-yl)-6-fluor-1,4-dihydro-4-oxo-3-chinolincarbonäure-Hydrochlorid-Hydrat], the MIC in assay [2] worked out at 0.06 µg/mL; in assay [3], 0.06 µg/mL; in assay [4] it was 0.06 µg/mL; in assay [7] (setting [9]), 8 µg/mL; in assay [8], 0.06 µg/mL; in assay [5], 0.06 µg/mL. In addition, the MIC in assay [6] stood at 0.5 µg/mL.

As to `O=C(O)c1cn(C2CC2)c2c(F)c(N3CCN4CCC3C4)c(F)cc2c1=O` (stereo not drawn) [Beispiel 4, 1-Cyclopropyl-7-(1,4-diazabicyclo[3.2.1]oct-4-yl)-6,8-difluor-1,4-dihydro-4-oxo-3-chinolincarbonsäure], the MIC in assay [1] worked out at 0.5 µg/mL (≈ 1.33 µM); in assay [2], 0.25 µg/mL (≈ 0.666 µM); in assay [4] it was 0.06 µg/mL (≈ 0.16 µM); in assay [7] (setting [9]) it was 8 µg/mL (≈ 21.3 µM); in assay [8], 0.06 µg/mL (≈ 0.16 µM); in assay [6] it was 0.5 µg/mL (≈ 1.33 µM).

Regarding `CN1C2CCC1CN(c1cc3c(cc1F)c(=O)c(C(=O)O)cn3C1CC1)C2` [Beispiel 12, 1-Cyclopropyl-6-fluor-1,4-dihydro-7-(8-methyl-3,8-diazabi-cyclo[3.2.1]oct-3-yl)-4-oxo-3-chinolincarbonsäure], the MIC turned out to be 0.5 µg/mL (≈ 1.35 µM) in assay [1], 16 µg/mL (≈ 43.1 µM) in assay [7] and 4 µg/mL (≈ 10.8 µM) in assay [6].

On to `O=C(O)c1cn(C2CC2)c2cc(N3CCNCC3)c(F)cc2c1=O` [Ciprofloxacin, 1-Cyclopropyl-6-fluor-1,4-dihydro-4-oxo-7-(1-piperazinyl)-3-chinolincarbonsäure, reference compound], for which the MIC was 0.5 µg/mL (≈ 1.51 µM) in assay [1]; 0.25 µg/mL (≈ 0.754 µM) in assay [2]; 0.5 µg/mL (≈ 1.51 µM) in assay [3]; 0.5 µg/mL (≈ 1.51 µM) in assay [4]; 32 µg/mL (≈ 96.6 µM) in assay [7] (setting [9]); 0.5 µg/mL (≈ 1.51 µM) in assay [8]. The MIC stood at 0.5 µg/mL (≈ 1.51 µM) in assay [5] and 2 µg/mL (≈ 6.04 µM) in assay [6].
